Measured values as given in patent publication US20240350669A1, “INHIBITION OF KYNURENINE SYNTHESIS AND/OR SIGNALING TO TREAT LEUKEMIA AND MYELODYSPLASIA” (THE TRUSTEES OF COLUMBIA UNIVERSITY IN THE CITY OF NEW YORK, priority 2022, published 2024).

Legend:
HTR1B = test: Saa3 mRNA in primary mouse calvaria osteoblasts from Htr1b+/+ or Htr1b-/- mice; format: cell-based; settings: 25 nM, 24 h; for Saa3 expression in mouse osteoblasts: Htr1b+/+ osteoblasts
Experimental: Primary calvaria-derived osteoblasts were prepared from calvaria of 2-3 day-old newborns as previously described (Rached M-T, et al. FoxO1 Is a Positive Regulator of Bone Formation by Favoring Protein Synthesis and Resistance to Oxidative Stress in Osteoblasts. Cell Metabolism. Elsevier Ltd; 2010; 11:147-60.). Briefly, mice calvaria were sequentially digested for 20, 40, and 90 min at 37° C. in alpha-MEM (Gibco) 10% FBS containing 0.1 mg/ml of collagenase P (Worthington) and 0.25% trypsin (Gibco). Cells of the first two digests were discarded, whereas cells released from the third digestion were plated and differentiated for 7-10 days as previously described.
(§1) RNA isolation, cDNA preparation and real-time PCR analyses were carried out following standard protocols. Total RNA from cortical bone (clean, flushed femurs, were centrifugated 20 seconds at 10.000 g's to remove any remaining BM) was extracted using TRIzol (Invitrogen) followed by RNA clean-up using PureLink RNA Mini Kit (Ambion, Invitrogen). mRNA was reversed transcribed using random hexamers RNA-to-cDNA kit (Takara). Specific forward and reverse primers were used in conjunction with PowerUp SYBR Green Master Mix (Applied Biosystems) for quantitative PCR. Expression levels were analyzed using the 2^−ΔΔCt method and were normalized for the expression of the housekeeping gene Hprt unless otherwise stated.

mouse HTR1B = biological target: T1, mouse HTR1B (Mus musculus, UniProt P28334); test: [3H]-5-HT competition binding, membranes of HEK293T cells overexpressing murine HTR1B; settings: competition of 25 nM [3H]-5-HT; for Log IC50: log value
T1 construct: The full-length murine or human serotonin receptor 1b (Htr1b); Myc-DDK; host or cells: HEK293T (transient, Lipofectamine LTX); isolated membranes
Experimental: (§2) Radioactivity captured on the filters was counted using a SL300 scintillation counter (Hidex). […] Log EC50 were determined by Non-linear regression curve analysis.

[1] = test system: patient-derived AML cells; test: Patient-derived AML xenograft in NSG mice, epacadostat chow and/or Ara-C; format: in vivo, mouse; settings: day 22 after initiating therapy; Ara-C 60 mg/kg/day x 5 days, epacadostat chow 1.6 g/kg 3 weeks
Experimental: (§3) Epacadostat (AdooQ Cat #A15554)-treatment: for the WT C57BL/6J mice, treatment started at the same time than MLL/AF9 cells were transplanted. For the patient-derived AML cells (PDX) transplanted into NSG mice, treatment started 8 weeks after transplant, at the same time than Ara-C and during 3 weeks. Mice were supplied with ad libitum epacadostat-supplemented diet (Research Diets Inc.) at 800 mg/kg (low-dose) or 1.6 g/kg (high-dose). For the PDX transplanted into NSGS mice, treatment started 3 weeks after transplant, by daily gavage at 300 mg/kg (InvivoChem Cat #: V0942, dissolved in 10% DMSO, 40% PEG 300 and 50% NaCl 0.9%) for 2 weeks.
For the combination therapy (Epacadostat+chemotherapy) performed at the University of Pennsylvania, patient-derived AML cells were transplanted as previously reported (48). Briefly 6 weeks old NSG males were sublethally treated with busulfan (30 mg/kg) 24 h before transplant and 5×10^6 patient-derived AML cells were injected i.v. Engraftment was assessed, and mice were randomized at 7.5 weeks by BM aspirate as previously described. Randomized mice were treated with vehicle, cytosine arabinoside (Ara-C, 60 mg/kg/day×5 days i.p.), epacadostat chow (1.6 g/kg ad libitum) or both Ara-C and epacadostat chow for 3 weeks.

[2] = test system: leukemic blasts (hCD45+hCD33+); test: Kyn injection in low AML burden PDX mice; format: in vivo, mouse; settings: Kyn 20 mg/kg, 1 week
Experimental: 4-6 weeks old NSG (CDX model) or NSGS (PDX model) mice were pre-conditioned with sublethal (1.4 Gy) total-body irradiation. 24 h after, 1×10^6 OCI-AML3 or 2×10^5 human BM CD34^+ (healthy) or primary AML patient samples were injected i.v. Engraftment levels were monitored and mice were randomized after BM aspiration 3-4 weeks later and immunophenotyped by the presence of mCD45 (BioLegend Cat #103133, RRID: AB_10899570), hCD45 (BioLegend Cat #368512, RRID: AB_2566372), hCD33 (BioLegend Cat #303404, RRID: AB_314348), hCD34 (BioLegend Cat #343518, RRID: AB_1937203) cell populations. For the low-burden PDX model (kynurenine injections), mice were treated 1 week after transplant.
Quantification in serum from peripheral blood (mice) or BM plasma (patients) of Kyn and Trp was assessed by ELISA using independent kits (ImmunoSmol) as per manufacturer's instructions. The ratio between Kyn and Trp levels is shown. SAA3 in serum (murine SAA3 ELISA Kit Millipore) and SAA1 in patient BM plasma (Amyloid A1 DuoSet ELISA Kit (R&D) were assessed as per manufacturer's instructions.
Cell labelling was done by i.p. injection of mice with 50 mg/kg of freshly prepared 5-Ethynyl-2′-deoxyuridine-Edu-(Cayman Chemical Company Cat #20518). After 3-4 h, BM was harvested, and human cells were negatively selected by mouse cell depletion using mouse CD45 magnetic beads (Miltenyi). The human BM cells were then stained CD45 and CD33 to identify the leukemic blast. Cell cycle/proliferation analysis was performed using the Click-iT Plus EdU Flow Cytometry Assay Kit (Invitrogen, Cat #C10420) following manufacturers' instructions. Fixable viability dye (Biolegend) was used to discriminate the death population. Single color controls were used to set compensations and fluorescence minus one control were used to set gates. Analysis was performed with FlowJo software.

human HTR1B [3] = biological target: T2, human HTR1B (Homo sapiens, UniProt P28222); test: [3H]-GR125743 competitive radioligand binding, HTR1B membranes from HEK293T stable transfectants; settings: [3H]-GR125743, human HTR1B
Experimental: [^3H]-GR125743 (PerkinElmer) radioligand binding assays were performed in standard binding buffer (50 mM Tris, 10 mM MgCl2, 0.1 mM EDTA, 0.1% BSA, 0.01% ascorbic acid, pH 7.4). Competitive binding was assessed with various concentrations of test compounds (0.3 nM to 100 μM), [^3H]-GR125743 (1.38 nM), and HTR1B membranes (isolated from HEK293T stable transfectants) in a total volume of 150 μL. Assay plates were incubated in the dark for 1 h at RT and reactions were stopped by filtration onto 0.3% polyethyleneimine pre-soaked 96-well Filtermat A (PerkinElmer), followed with three quick washes with cold wash buffer (50 mM Tris, pH 7.4). Filters were dried and melted with scintillation cocktail (Meltilex, PerkinElmer). Radioactivity was counted using a Wallac TriLux Microbeta counter (PerkinElmer).

5-HT1B receptor = biological target: T3, 5-HT1B receptor (Homo sapiens, UniProt P28222); test: GloSensor Gi/o-mediated cAMP inhibition assay in HEK293T cells; format: cell-based
T3 construct: expressed in transfected cells; host or cells: HEK293T (transient co-transfection with GloSensor cAMP plasmid)

human HTR1B [4] = biological target: T2, human HTR1B; settings: competition of 25 nM [3H]-5-HT
Experimental: The full-length murine or human serotonin receptor 1b (Htr1b) (pCMV6-Entry vector, Myc-DDK-tagged, Origene, Cat #MR222524 and RC223874 respectively) were transiently transfected into HEK293T cells using Lipofectamine LTX (Invitrogen). Transfection efficiency was assessed 24 h post-transfection by flow cytometry using the anti-Flag antibody (Sigma-Aldrich Cat #F3165, RRID: AB_259529). […] Reactions were stopped by the addition of ice-cold PBS, filtered through 0.7 μm glass fiber filters (Data Support Company). Filters were dried and melted with scintillation cocktail. Radioactivity captured on the filters was counted using a SL300 scintillation counter (Hidex). […] Log EC50 were determined by Non-linear regression curve analysis.

MLL/AF9 AML cells = test: MLL/AF9 syngeneic leukemia model in non-irradiated WT mice; format: in vivo, mouse
Experimental: PTH bone-anabolic treatment: mice were injected intraperitoneally (i.p.) with PTH (Bachem) at 80 μg/kg/day in PBS. Injections started 1 week before MLL/AF9 injection and continued along 2-3 more weeks until mice were harvest.
SB224289-SB9-(TOCRIS Cat #1221) treatment: mice were injected intraperitoneally (i.p.) daily with SB9 (5 mg/kg in 0.9% NaCl) 1 week after leukemia injection and for the duration of the experiment. Assuming a 20 g body weight (BW) and a 2 ml total blood volume per mouse—as well as an even distribution of the drug-systemic concentration of SB9 should be approximately 50 μg/ml. Based on the MW of SB9 (557.09), the final concentration—at equal distribution—in blood should be 8.97521e-05 M (≈90 μM).
as §3
(§4) All leukemia models were introduced by intravenous (i.v.) injection and transplanted into non-irradiated secondary recipient experimental animals. BALB/c mice were used for the WEHI-3B leukemia model (0.5×10^6/cells/mouse) and C57BL/6J mice for MLL/AF9-dsRed (0.2×10^6/cells/mouse). Leukemia progression was assessed by fluorescence (MLL/AF9 dsRed) using the IVIS-Spectrum Optical Imaging System (Caliper, Perkin Elmer). Mice were shaved to reduce light attenuation.

murine HTR1B receptor = biological target: T4, murine HTR1B receptor (Mus musculus, UniProt P28334); test: [3H]-Kyn binding to Htr1b-overexpressing HEK293T membranes with increasing SB9
T4 construct: The full-length murine or human serotonin receptor 1b (Htr1b); Myc-DDK; host or cells: HEK293T (transient, Lipofectamine LTX); isolated membranes
Experimental: as §2

[5] = test system: serotonin-HTR1B signaling; test: Gene expression in bone of treated mice (targets of serotonin-HTR1B signaling); format: in vivo, mouse; settings: for expression of Cyclins D1, D2 and E1 in bone: treated versus vehicle-treated mice
Experimental: as §1

MLL/AF9 cells = test: Transplant of Ido1-edited MLL/AF9 cells into WT non-irradiated recipients; format: in vivo, mouse; settings: for disease progression: exon-3-edited MLL/AF9 cells versus Cas9-only
IDO1 = test: CRISPR/Cas9 Ido1 editing of primary murine MLL/AF9 cells; format: cell-based, mouse; settings: for deletion efficiency: Ido1 exon 3, MLL/AF9 cells
Experimental: (§5) The chemically modified sgRNAs targeting IDO1 were obtained and designed with at least 3 mismatches to decrease possible off target effects with the Synthego CRISPR design tool or the CRISPOR. […] In addition, lack of random effects due to TP53 activation, was shown by p16 and p21 mRNA level assessment in Cas9-only controls as well as in all the sgRNAs used. For 10^6 cells, 3 μg of TrueCut Cas9 protein V2 (Invitrogen) and 1.5 μg sgRNA were mixed in either SE (immortalized cell lines WEHI-3B and OCI-AML3) or P3 (primary mouse MLL/AF9 or patient-derived AML cells) buffer (Lonza, Amaxa X-Nucleofector Kit) and incubated 10 mins. Cells were then resuspended in their respective nucleofection buffer, mixed with the Cas9/sgRNA RNP complex or the Cas9 only as control, and electroporated with the Lonza 4D-Nucleofector (program DZ100, CM137 or DI100). After electroporation, cells were cultured in their respective media at 37° C. until sequencing analysis and/or injection. The editing efficiency data, indel contribution and Sanger sequence analyses were performed with the Synthego Performance Analysis, ICE Analysis. 2019. v2.0. (Synthego).

WEHI-3B = test: Transplant of Ido1-edited WEHI-3B cells into mice; format: in vivo, mouse; settings: edited WEHI-3B cells versus Cas9-only
Experimental: as §4
as §5, with “After electroporation, cells were cultured in their respective media at 37° C. until sequencing analysis and/or injection. The editing efficiency data, indel contribution and Sanger sequence analyses were performed with the Synthego Performance Analysis, ICE Analysis. 2019. v2.0. (Synthego).” left out

T3 sequence (P28222 whole entry): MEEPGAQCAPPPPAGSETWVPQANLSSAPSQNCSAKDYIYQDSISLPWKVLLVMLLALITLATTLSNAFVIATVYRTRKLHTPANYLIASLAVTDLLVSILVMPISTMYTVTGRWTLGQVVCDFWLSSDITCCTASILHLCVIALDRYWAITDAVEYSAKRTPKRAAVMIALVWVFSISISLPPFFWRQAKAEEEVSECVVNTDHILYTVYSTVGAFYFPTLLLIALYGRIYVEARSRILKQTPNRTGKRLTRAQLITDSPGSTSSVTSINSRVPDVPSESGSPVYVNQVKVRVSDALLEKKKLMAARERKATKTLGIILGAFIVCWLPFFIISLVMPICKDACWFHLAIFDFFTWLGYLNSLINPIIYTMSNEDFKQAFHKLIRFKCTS
T2 sequence (P28222 whole entry): as above
T1 sequence (P28334 whole entry): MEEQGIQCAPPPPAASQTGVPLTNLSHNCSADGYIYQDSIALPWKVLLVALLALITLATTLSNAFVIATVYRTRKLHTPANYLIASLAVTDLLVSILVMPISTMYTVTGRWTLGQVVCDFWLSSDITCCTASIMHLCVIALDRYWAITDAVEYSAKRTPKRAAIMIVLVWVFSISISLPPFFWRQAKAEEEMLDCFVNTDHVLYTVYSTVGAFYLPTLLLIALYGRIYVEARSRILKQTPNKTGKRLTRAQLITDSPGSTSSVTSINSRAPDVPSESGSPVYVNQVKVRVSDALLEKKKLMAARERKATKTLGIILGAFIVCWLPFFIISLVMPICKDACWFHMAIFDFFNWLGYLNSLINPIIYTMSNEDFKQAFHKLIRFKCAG
T4 sequence (P28334 whole entry): as above

NCCc1c[nH]c2ccc(O)cc12 [5-HT, 5-hydroxytryptamine]
Saa3 expression in mouse osteoblasts (HTR1B): no effect | IC50 (mouse HTR1B): 0.0811 µM | Log IC50 (mouse HTR1B): −7.091 M

Nc1ccn([C@@H]2O[C@H](CO)[C@@H](O)[C@@H]2O)c(=O)n1 [Ara-C, cytosine arabinoside]
leukemic burden in BM [1]: modest decrease in overall leukemic burden | leukemic burden in spleen [1]: more sustained in the spleen than in BM

Nc1ccccc1C(=O)CC(N)C(=O)O (stereo not drawn) [Kyn, kynurenine]
AML burden in BM and SP [2]: increased | proliferative capacity of the leukemic blasts [2]: increases | serum SAA3 [2]: increases | Ki (human HTR1B [3]): 17.3 µM | Log Ki (human HTR1B [3]; log value): −4.762 M | Saa3 expression in Htr1b-/- primary osteoblasts (HTR1B): failed to upregulate | Saa3 expression in mouse osteoblasts (HTR1B): potently upregulated | mode of action on Gi/o-mediated cAMP production through HTR1B (5-HT1B receptor): partial agonist | EC50 (5-HT1B receptor; cAMP Gi agonist, human HTR1B): 772 nM | Log EC50 (5-HT1B receptor; log value, cAMP Gi agonist, human HTR1B): −6.113 M | IC50 (human HTR1B [4]): 24.4 µM | Log IC50 (human HTR1B [4]; log value): −4.612 M | IC50 (mouse HTR1B): 54.1 µM | Log IC50 (mouse HTR1B): −4.267 M

Cc1nc(-c2ccc(-c3ccc(C(=O)N4CCc5cc6c(cc54)C4(CCN(C)CC4)CO6)cc3)c(C)c2)no1 [SB224289, 1′-methyl-5-[[2′-methyl-4“-(5-methyl-1,2,4-oxadiazol-3-yl)biphenyl-4-yl]carbonyl]-2,3,6,7-tetrahydro-spiro[furo[2,3-f]indole-3,4-”piperidine]]
survival (MLL/AF9 AML cells; SB9 5 mg/kg i.p. daily versus vehicle): significant increase in survival | effect on Kyn binding to the murine HTR1B receptor (murine HTR1B receptor; at ~90 μM, concentration equal to the one administered in vivo): no effect | IC50 (murine HTR1B receptor; competition of [3H]-Kyn (50 μM), mouse HTR1B): 7.72 mM | IC50 (mouse HTR1B): 1.27 µM | Log IC50 (mouse HTR1B): −5.896 M | expression of Col1a1 in bone ([5]; control osteoblast-specific gene): not affected | expression of Cyclins D1, D2 and E1 in bone [5]: upregulated

sgRNA #146: mouse sgRNA targeting Ido1 exon 3: CGCCAUGGUGAUGUACCCCA GGG (guide CGCCAUGGUGAUGUACCCCAGGG; listed as RNA, chemistry not fully specified)
disease progression (MLL/AF9 cells): abrogated | deletion efficiency (IDO1): ~56% | survival (WEHI-3B): significant increased survivals

sgRNA #196: mouse sgRNA targeting Ido1 exon 3: CUGCCCACACUGAGCACGGA CGG (guide CUGCCCACACUGAGCACGGACGG; listed as RNA, chemistry not fully specified)
disease progression (MLL/AF9 cells): significantly attenuated | deletion efficiency (IDO1): ~40%

sgRNA #203: mouse sgRNA targeting Ido1 exon 3: CAGUCCGUCCGUGCUCAGUG TGG (guide CAGUCCGUCCGUGCUCAGUGTGG; modified_base 21 OTHER; thymine)
disease progression (MLL/AF9 cells): significantly attenuated | deletion efficiency (IDO1): ~40%

sgRNA #610: mouse sgRNA targeting Ido1 exon 4: UAGGGAACAGCAAUAUUGCG GGG (guide UAGGGAACAGCAAUAUUGCGGGG; listed as RNA, chemistry not fully specified)
mice with complete protection against leukemia progression that survived (MLL/AF9 cells; exon-4-edited MLL/AF9 cells): 36% | survival (MLL/AF9 cells; exon-4-edited MLL/AF9 cells versus Cas9-only): significant increase in survival | MLL/AF9 cells efficiently targeted (IDO1; Ido1 exon 4): ~70% | loss of expression of Ido1 at the mRNA level (IDO1; Ido1 exon 4, MLL/AF9 cells): 70%

B1: parathyroid hormone (peptide, UniProt P01270 32-115, looked up)
Parathyroid hormone: SVSEIQLMHNLGKHLNSMERVEWLRKKLQDVHNFVALGAPLAPRDAGSQRPRKKEDNVLVESHEKSLGEADKADVNVLTKAKSQ
modifications: Parathyroid hormone
notes: intermittent parathyroid hormone (Bachem), increases osteoblast numbers
leukemia growth, disease progression and lifespan (MLL/AF9 AML cells; PTH 80 μg/kg/day i.p. versus vehicle): failed to curtail leukemia growth | expression of Cyclins D1, D2 and E1 in bone [5]: did not change
